According to ChEMBL document CHEMBL4229507, “Identification of influenza PA-Nter endonuclease inhibitors using pharmacophore- and docking-based virtual screening” (Bioorg Med Chem, 2018):
pEC50, pIC50: −log10 of the molar value.

Legend:
[1] = target: Polymerase acidic protein (Influenza A virus (strain A/X-31 H3N2), UniProt Q9IQ47); test: (§1) Inhibition of recombinant Influenza A virus (A/X-31(H3N2)) N-terminal 6xHis-tagged PA-Nter (1 to 217 residues) expressed in Escherichia coli BL21-CodonPlus cells using M13mp18 as substrate after 1 hr by ethidium bromide staining-based agarose gel electrophoresis
[2] = target: Polymerase acidic protein (Influenza A virus (strain A/X-31 H3N2)) (UniProt Q9IQ47); test: as §1
[3] = system: Influenza A virus; test: Antiviral activity against Influenza A virus (A/Puerto Rico/8/1934(H1N1)) infected in MDCK cells after 24 hrs by immunofocus assay; format: functional, organism-based
[4] = system: unidentified influenza virus; test: Antiviral activity against Influenza virus assessed as inhibition of viral transcription

Compound | pIC50 [1] | further results
O=C(C(=O)N1CCC(Cc2ccccc2)CC1)c1c[nH]c2cc(O)c(O)cc12 | 3.58 | 
NS(=O)(=O)c1ccc(C(=O)NCCc2ccc(O)c(O)c2)cc1 | 4.92 | inhibition [2]: Dose-dependent effect
O=c1[nH]c(-c2ccc(F)cc2)c(-c2ccc(-c3nnn[nH]3)cc2)cc1O |  | pEC50 [3]: 4.94
O=C(CCN1CCC(Cc2ccc(F)cc2)CC1)c1c[nH]c2cc(O)c(O)cc12 | 3.61 | 
O=C(O)/C(O)=C/C(=O)C1(Cc2ccc(Cl)cc2)CCN(Cc2ccccc2)CC1 |  | pIC50 [4]: 6.37
O=C(O)C(=O)CC(=O)c1ccccc1 | 5.49 | 
